For the assay, the target named is T1, human orexin type 2 receptor (Homo sapiens, UniProt O43614).
T1 construct: expressed in transfected cells
T1 sequence (O43614 1-444): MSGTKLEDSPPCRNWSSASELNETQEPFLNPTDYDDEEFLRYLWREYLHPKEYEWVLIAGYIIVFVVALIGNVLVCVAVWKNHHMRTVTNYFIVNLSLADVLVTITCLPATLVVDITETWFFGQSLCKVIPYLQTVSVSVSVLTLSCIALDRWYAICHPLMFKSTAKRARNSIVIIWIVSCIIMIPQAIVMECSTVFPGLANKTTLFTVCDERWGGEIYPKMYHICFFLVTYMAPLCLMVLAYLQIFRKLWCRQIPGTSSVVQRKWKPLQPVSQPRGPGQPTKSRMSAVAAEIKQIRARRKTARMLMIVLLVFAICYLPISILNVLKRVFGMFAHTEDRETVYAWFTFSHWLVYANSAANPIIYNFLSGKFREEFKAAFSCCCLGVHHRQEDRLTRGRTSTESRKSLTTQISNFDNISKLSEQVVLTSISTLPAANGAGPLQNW
The assay is described as follows: Measurement of orexin type 2 receptor agonist activity (calcium fluorescence, Fluo-4 AM, FDSS) in CHO cells forcibly expressing human OX2 receptor. The settings on record: test compound 3 μM, DMSO = 0%, orexin A (human) 10 nM = 100%. The class given is cell-based. A digest of the protocol:
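CHO-dhfr cells stably expressing human OX2 receptor, loaded with Fluo-4 AM plus probenecid for 30 min at 37 °C, then 30 min at room temperature. Calcium fluorescence read for about 2 min 40 s after compound addition. Activity (%) scaled between DMSO (0%) and 10 nM human orexin A (100%).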
On to `CCS(=O)(=O)N[C@H]1CCc2ncn(C(C)C)c(=O)c2[C@H]1Cc1cccc(-c2ccccc2)c1` (racemic) [Example 80, rac-N-[(5R,6S)-5-[([1,1′-biphenyl]-3-yl)methyl]-4-oxo-3-(propan-2-yl)-3,4,5,6,7,8-hexahydroquinazolin-6-yl]ethanesulfonamide], for which the “0X2R agonist activity (3 μM, %)” value amounted to 93%.
For `CC(C)n1cnc2c(c1=O)[C@@H](Cc1cccc(-c3cccc(F)c3F)c1F)[C@@H](NS(C)(=O)=O)CC2` (relative stereo) [Example 151, rel-N-{(5R,6S)-4-oxo-3-(propan-2-yl)-5-[(2,2′,3′-trifluoro[1,1′-biphenyl]-3-yl)methyl]-3,4,5,6,7,8-hexahydroquinazolin-6-yl}methanesulfonamide], the “0X2R agonist activity (3 μM, %)” value is given as 107%.
The same measure for `CCn1ccc2c(c1=O)[C@@H](Cc1cccc(-c3ccccc3)c1F)[C@@H](NS(C)(=O)=O)C[C@@H]2F` (racemic) [Example 167, rac-N-{(5S,7S,8R)-2-ethyl-5-fluoro-8-[(2-fluoro[1,1′-biphenyl]-3-yl)methyl]-1-oxo-1,2,5,6,7,8-hexahydroisoquinolin-7-yl}methanesulfonamide]: 93%.
The same measure for `Cn1ccc2c(c1=O)[C@@H](Cc1cccc(-c3ccccc3)c1)[C@@H](NS(C)(=O)=O)CC2` (racemic) [Example 46, rac-N-{(7S,8R)-8-[([1,1′-biphenyl]-3-yl)methyl]-2-methyl-1-oxo-1,2,5,6,7,8-hexahydroisoquinolin-7-yl}methanesulfonamide]: 102%; for `CC(C)c1nn(C)c2c(c1=O)[C@@H](Cc1cccc(-c3ccccc3)c1)[C@@H](NS(C)(=O)=O)CC2` (racemic) [Example 158, rac-N-[(5R,6S)-5-[([1,1′-biphenyl]-3-yl)methyl]-1-methyl-4-oxo-3-(propan-2-yl)-1,4,5,6,7,8-hexahydrocinnolin-6-yl]methanesulfonamide]: 101%; for `CCc1ccc2n(c1=O)C(Cc1cccc(-c3cc(F)cc(F)c3)c1)C(NS(C)(=O)=O)CC2` (racemic) [Example 101, rac-N-{(3S,4S)-4-[(3′,5′-difluoro[1,1′-biphenyl]-3-yl)methyl]-7-ethyl-6-oxo-1,3,4,6-tetrahydro-2H-quinozilin-3-yl}methanesulfonamide]: 98%.
The same measure for `Cc1cc2n(c(=O)c1C)[C@@H](Cc1cccc(-c3ccccc3)c1)[C@@H](NS(C)(=O)=O)CC2` (racemic) [Example 19, rac-N-{(3S,4S)-4-[([1,1′-biphenyl]-3-yl)methyl]-7,8-dimethyl-6-oxo-1,3,4,6-tetrahydro-2H-quinolizin-3-yl}methanesulfonamide]: 122%; for `CS(=O)(=O)N[C@H]1CCc2ccc(F)c(=O)n2[C@H]1Cc1cccc(-c2ccccc2)c1` (racemic) [Example 16, rac-N-{(3S,4S)-4-[([1,1′-biphenyl]-3-yl)methyl]-7-fluoro-6-oxo-1,3,4,6-tetrahydro-2H-quinolizin-3-yl}methanesulfonamide]: 95%; for `CCS(=O)(=O)NC1CCc2c(C)nn(C)c(=O)c2C1Cc1cccc(-c2ccccc2)c1` (racemic) [Example 97, rac-N-{(5R,6S)-5-[([1,1′-biphenyl]-3-yl)methyl]-1,3-dimethyl-4-oxo-3,4,5,6,7,8-hexahydrophthlalazin-6-yl}ethanesulfonamide]: 82%.
Consider `CC(C)n1cnc2c(c1=O)[C@@H](Cc1cccc(-c3cc(F)cc(F)c3)c1)[C@@H](NS(=O)(=O)C1CC1)CC2` [Example 175, N-[(5R,6S)-5-[(3′,5′-difluoro[1,1′-biphenyl]-3-yl)methyl]-4-oxo-3-(propan-2-yl)-3,4,5,6,7,8-hexahydroquinazolin-6-yl]cyclopropanesulfonamide], for which the “0X2R agonist activity (3 μM, %)” value is 85%.
With `Cc1ccc(=O)n2c1CC[C@H](NS(C)(=O)=O)[C@@H]2Cc1cccc(-c2ccccc2)c1` (racemic) [Example 8, rac-N-{(3S,4S)-4-[([1,1′-biphenyl]-3-yl)methyl]-9-methyl-6-oxo-1,3,4,6-tetrahydro-2H-quinolizin-3-yl}methanesulfonamide], the “0X2R agonist activity (3 μM, %)” value is on record as 97%.
Under `CC(C)n1ccc2c(c1=O)[C@@H](Cc1cccc(-c3ccccc3)n1)[C@@H](NS(C)(=O)=O)CC2` (racemic) [Example 148, rac-N-[(7S,8R)-1-oxo-8-[(6-phenylpyridin-2-yl)methyl]-2-(propan-2-yl)-1,2,5,6,7,8-hexahydroisoquinolin-7-yl]methanesulfonamide] stands 104%; under `CC(C)n1cnc2c(c1=O)[C@@H](Cc1cccc(-c3ccn(C)n3)c1)[C@@H](NS(C)(=O)=O)CC2` (racemic) [Example 117, rac-N-[(5R,6S)-5-{[3-(1-methyl-1H-pyrazol-3-yl)phenyl]-methyl}-4-oxo-3-(propan-2-yl)-3,4,5,6,7,8-hexahydroquinazolin-6-yl]methanesulfonamide], 97%; under `CC(C)n1cnc2c(c1=O)[C@@H](Cc1cccc(-c3cccc(F)c3)c1)[C@@H](NS(=O)(=O)C1CC1)CC2` [Example 188, N-[(5R,6S)-5-[(3′-fluoro[1,1′-biphenyl]-3-yl)methyl]-4-oxo-3-(propan-2-yl)-3,4,5,6,7,8-hexahydroquinazolin-6-yl]cyclopropanesulfonamide], 107%.
The same measure for `CC(C)n1cnc2c(c1=O)C(Cc1cccc(-c3cccc(F)c3)c1)C(NS(=O)(=O)C1(F)CC1)CC2` (stereo not drawn) [Example 186, rel-1-fluoro-N-{5-[(3′-fluoro[1,1′-biphenyl]-3-yl)methyl]-4-oxo-3-(propan-2-yl)-3,4,5,6,7,8-hexahydroquinazolin-6-yl}cyclopropane-1-sulfonamide]: 90%; for `CC1OCC2CCC(NS(C)(=O)=O)C(Cc3cccc(-c4cccc(F)c4)c3)N2C1=O` (racemic) [Example 165, rac-N-{(3R,6S,7S,9aR)-6-[(3′-fluoro[1,1′-biphenyl]-3-yl)methyl-3-methyl-4-oxooctahydropyrido[2,1-c][1,4]oxazin-7-yl}methanesulfonamide]: 97%.
Turning to `CC(C)n1cnc2c(c1=O)[C@@H](Cc1cccc(-c3cc(F)cc(F)c3)c1)[C@@H](NS(=O)(=O)C1(F)CC1)CC2` (relative stereo) [Example 187, rel-N-[(5R,6S)-5-[(3′,5′-difluoro[1,1′-biphenyl]-3-yl)methyl]-4-oxo-3-(propan-2-yl)-3,4,5,6,7,8-hexahydroquinazolin-6-yl]-1-fluorocyclopropane-1-sulfonamide], the “0X2R agonist activity (3 μM, %)” value is recorded as 94%.
The same measure for `Cc1ccc2n(c1=O)[C@@H](Cc1cccc(-c3cc(F)cc(F)c3)n1)[C@@H](NS(C)(=O)=O)CC2` (racemic) [Example 60, rac-N-[(3S,4S)-4-{[6-(3,5-difluorophenyl)pyridin-2-yl]methyl}-7-methyl-6-oxo-1,3,4,6-tetrahydro-2H-quinolizin-3-yl]methanesulfonamide]: 83%.
For `[2H]C([2H])([2H])C([2H])([2H])n1ccc2c(c1=O)C(Cc1cccc(-c3cccc(F)c3F)c1)C(NS(C)(=O)=O)CC2` (racemic) [Example 147, rac-N-{(7S,8R)-8-[(2′,3′-difluoro[1,1′-biphenyl]-3-yl)methyl]-2-(~2~H_5_)ethyl-1-oxo-1,2,5,6,7,8-hexahydroisoquinolin-7-yl}methanesulfonamide], the “0X2R agonist activity (3 μM, %)” value was found to be 100%.
Turning to `CC(C)n1cnc2c(c1=O)[C@@H](Cc1cccc(-c3cccc(C(F)F)c3F)c1F)[C@@H](NS(C)(=O)=O)CC2` (relative stereo) [Example 152, rel-N-[(5R,6S)-5-{[3′-(difluoromethyl)-2,2′-difluoro[1,1′-biphenyl]-3-yl]methyl}-4-oxo-3-(propan-2-yl)-3,4,5,6,7,8-hexahydroquinazolin-6-yl]methanesulfonamide], the “0X2R agonist activity (3 μM, %)” value is recorded as 94%.
The same measure for `Cc1ccc2n(c1=O)C(Cc1cccc(-c3cccc(F)c3)c1)C(NC(=O)[C@@H]1CCCO1)CC2` (mixture of isomers) [Example 26, (2S)-N-{(3SR,4SR)-4-[(3′-fluoro[1,1′-biphenyl]-3-yl)methyl]-7-methyl-6-oxo-1,3,4,6-tetrahydro-2H-quinolizin-3-yl}oxolane-2-carboxamide]: 101%; for `CCS(=O)(=O)N[C@H]1CCc2ncn(C(C)C)c(=O)c2[C@H]1Cc1cccc(-c2cccc(F)c2F)c1` [Example 200, N-[(5R,6S)-5-[(2′,3′-difluoro[1,1′-biphenyl]-3-yl)methyl]-4-oxo-3-(propan-2-yl)-3,4,5,6,7,8-hexahydroquinazolin-6-yl]ethanesulfonamide]: 89%; for `CC(C)(O)c1ccc2n(c1=O)[C@@H](Cc1cccc(-c3ccccc3)c1)[C@@H](NS(C)(=O)=O)CC2` (racemic) [Example 33, rac-N-[(3S,4S)-4-[([1,1′-biphenyl]-3-yl)methyl]-7-(2-hydroxypropan-2-yl)-6-oxo-1,3,4,6-tetrahydro-2H-quinolizin-3-yl]methanesulfonamide]: 87%.
